In patent publication US11857535B2, “Methods of treating mutant lymphomas” (Kymera Therapeutics, Inc., priority 2020, dated 2024):
pIC50: −log10 of the molar value.

How the values were obtained:
IRAK4 = molecular target: T1, IRAK4 (Homo sapiens, UniProt Q9NWZ3); assay: IRAK4 MSD degradation in OCI-Ly10; format: cell-based; conditions: OCI-Ly10 cells, 24 hrs
T1 construct: endogenous in cells; host or cells: OCI-Ly10
T1 sequence (Q9NWZ3 1-460): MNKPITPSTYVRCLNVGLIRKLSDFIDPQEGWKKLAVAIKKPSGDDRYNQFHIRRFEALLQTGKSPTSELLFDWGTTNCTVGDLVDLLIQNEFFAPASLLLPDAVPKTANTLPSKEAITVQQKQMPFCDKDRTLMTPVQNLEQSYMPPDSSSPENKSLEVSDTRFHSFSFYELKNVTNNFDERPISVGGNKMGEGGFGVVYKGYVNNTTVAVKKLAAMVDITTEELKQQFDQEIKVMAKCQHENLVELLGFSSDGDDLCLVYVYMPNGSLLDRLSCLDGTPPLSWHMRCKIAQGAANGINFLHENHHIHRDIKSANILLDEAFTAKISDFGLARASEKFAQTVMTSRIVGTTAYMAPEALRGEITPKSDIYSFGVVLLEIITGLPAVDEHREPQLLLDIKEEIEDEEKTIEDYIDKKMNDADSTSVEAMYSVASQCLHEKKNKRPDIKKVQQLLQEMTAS
Description: Degradation of IRAK4 in OCI-Ly10 was quantitatively measured using Meso Scale Discovery technology. OCI-Ly10 cells were seeded in 96-well plates (Corning 3799) with a density of 300,000 cells per well in 100 μL fresh media. Compounds were then added to the assay plates with a final top concentration of 1 to 10 μM in a 1:3 dilution series with total of 8 doses. The assay plates were then incubated for 4 to 24 hours at 37° C. under 5% CO2. The assay plates were then centrifuged for 5 minutes and the cell pellets were treated with 100 μL/well RIPA lysis buffer (Boston BioProducts BP-115D) with proteinase inhibitors. To prepare MSD assay plates (Meso Scale Discovery Catalog number L15XA-3), the plates were coated with 2 μg/mL capture antibody (mouse Anti-IRAK4 antibody [2H9], ab119942) in PBS, at 40 μL/well. The plates were then incubated overnight at 4° C., washed 3 times with 150 μL/well TBST buffer (Cell Signaling Technology, Catalog number 9997S) and blocked with 150 μL/well blocking buffer (Meso Scale Discovery Catalog number R93BA-4). Cell lysates were then added to MSD assay plates and the plates were incubated at room temperature for 1 hour. The plates were then washed 3 times with 150 μL/well TBST buffer and […] primary detection antibody (rabbit Anti-IRAK4 antibody [Y279], from Abcam. Catalog number ab32511, 1 μg/mL). The assay plates were then incubated at room temperature for 1 hour, washed 3 times with 150 μL/well TBST buffer and 25 μL/well secondary detection antibody, SULFO-TAG anti-rabbit antibody were added (anti rabbit antibody from Meso Scale Discovery, Catalog number R32AB-1, 1 μg/mL). The assay plates were then incubated at room temperature for 1 hour, washed 3 times with 150 μL/well TBST buffer, and 150 μL/well MSD reading buffer (Meso Scale Discovery catalog number R92TC-2) was added. The plates were then analyzed by a MSD reader (Meso Scale Discovery, Model Quick Plex SQ 120). The data was then analyzed by software Prism 7.0 from GraphPad and the dose-depended IRAK4 degradation were fit using a three-parameter logistic equation to calculate DC50.

OCI-Ly10 = assay: CTG cell viability assay - OCI-Ly10; format: cell-based; conditions: Homo sapiens, 96 h; OCI-Ly10, 4 days
Description: Compound-mediated viability effect on OCI-Ly10 or SUDHL-2 was quantitatively determined using the CellTiter-Glo® Luminescent Cell Viability Assay kit from Promega (Catalog number G7570) following manufacturer's recommended procedures. Briefly, OCI-Ly10 or SUDHL-2 cells were seeded into 384 well plates (Grenier Bio-One, Catalog number 781080) with a density of 10,000 cells per well. Compounds were then added to the assay plate with final top concentration of 10 μM and 1:3 dilution series with total of 9 doses. The final DMSO concentration was normalized to 0.2%. The assay plates were incubated at 37° C. for 4 days under 5% CO2. Then the assay plate was equilibrated at room temperature for 10 minutes. To determine cell viability, 30 μL CellTiter Glo reagent was added to each well and the assay plate was centrifuged at 1000 rpm for 30 second, incubated at room temperature for 10 min, and analyzed by detecting the luminescence using a multimode plate reader (EnVision 2105, PerkinElmer). The data was then analyzed by software Prism 7.0 from GraphPad and the dose response curves were fit using a three-parameter logistic equation to calculate IC50.

[1] = test system: MYD88-mutant and wild type DLBCL PDX models; conditions: MYD88 MT model LY0257 with mutation in Aiolos; cited from earlier work

DC50 (IRAK4) [nM]	pIC50 (OCI-Ly10)	SMILES	sensitivity of PDX model LY0257 [1]
< 50	> 7.30	CC(C)(O)c1cc2nc([C@H]3CC[C@H](CN4CC5(CC(CCNc6cccc7c6C(=O)N([C@@H]6CCC(=O)NC6=O)C7=O)C5)C4)CC3)sc2cc1NC(=O)c1cccc(C(F)(F)F)n1 (single isomer, unassigned) [Compound (R)-A]	–
< 50	> 7.30	CC(C)(O)c1cc2nc([C@H]3CC[C@H](CN4CC5(CC(CCNc6cccc7c6C(=O)N([C@H]6CCC(=O)NC6=O)C7=O)C5)C4)CC3)sc2cc1NC(=O)c1cccc(C(F)(F)F)n1 (single isomer, unassigned) [Compound (S)-A]	–
–	–	Nc1cccc2c1CN(C1CCC(=O)NC1=O)C2=O (centres unmarked) [lenalidomide]	insensitive
